The text below walks through data of patent publication US7635572B2, “Methods for conducting assays for enzyme activity on protein microarrays” (Life Technologies Corporation, priority 2004, dated 2009).

In the first assay the target is plurality of kinases (Table 5) (Homo sapiens, UniProt Q9Y6R4). As to the kind of experiment: Further analysis of a plurality of inhibitors and a plurality of kinases on microarray (Example IX, Table 5).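 As to Inhibition level, CDKL3: level 0 no or unclear inhibition to Level 2 substantial inhibition.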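 As to Inhibition level, ITK: level 0 none or unclear then 1 little or marginal then 2 substantial inhibition.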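 As to Inhibition level, MAP3K4: level 0 no or unclear inhibition to Level 2 substantial inhibition.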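 As to Inhibition level, MAP4K3: level 0 none or unclear then 1 little or marginal then 2 substantial inhibition.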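 As to Inhibition level, PIM1: level 0 no or unclear inhibition to Level 2 substantial inhibition.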 The class given is biochemical. The settings on record: plate E7; inhibitor 100 uM.
Sequence of plurality of kinases (Table 5) (Homo sapiens, UniProt Q9Y6R4) (Q9Y6R4 whole entry): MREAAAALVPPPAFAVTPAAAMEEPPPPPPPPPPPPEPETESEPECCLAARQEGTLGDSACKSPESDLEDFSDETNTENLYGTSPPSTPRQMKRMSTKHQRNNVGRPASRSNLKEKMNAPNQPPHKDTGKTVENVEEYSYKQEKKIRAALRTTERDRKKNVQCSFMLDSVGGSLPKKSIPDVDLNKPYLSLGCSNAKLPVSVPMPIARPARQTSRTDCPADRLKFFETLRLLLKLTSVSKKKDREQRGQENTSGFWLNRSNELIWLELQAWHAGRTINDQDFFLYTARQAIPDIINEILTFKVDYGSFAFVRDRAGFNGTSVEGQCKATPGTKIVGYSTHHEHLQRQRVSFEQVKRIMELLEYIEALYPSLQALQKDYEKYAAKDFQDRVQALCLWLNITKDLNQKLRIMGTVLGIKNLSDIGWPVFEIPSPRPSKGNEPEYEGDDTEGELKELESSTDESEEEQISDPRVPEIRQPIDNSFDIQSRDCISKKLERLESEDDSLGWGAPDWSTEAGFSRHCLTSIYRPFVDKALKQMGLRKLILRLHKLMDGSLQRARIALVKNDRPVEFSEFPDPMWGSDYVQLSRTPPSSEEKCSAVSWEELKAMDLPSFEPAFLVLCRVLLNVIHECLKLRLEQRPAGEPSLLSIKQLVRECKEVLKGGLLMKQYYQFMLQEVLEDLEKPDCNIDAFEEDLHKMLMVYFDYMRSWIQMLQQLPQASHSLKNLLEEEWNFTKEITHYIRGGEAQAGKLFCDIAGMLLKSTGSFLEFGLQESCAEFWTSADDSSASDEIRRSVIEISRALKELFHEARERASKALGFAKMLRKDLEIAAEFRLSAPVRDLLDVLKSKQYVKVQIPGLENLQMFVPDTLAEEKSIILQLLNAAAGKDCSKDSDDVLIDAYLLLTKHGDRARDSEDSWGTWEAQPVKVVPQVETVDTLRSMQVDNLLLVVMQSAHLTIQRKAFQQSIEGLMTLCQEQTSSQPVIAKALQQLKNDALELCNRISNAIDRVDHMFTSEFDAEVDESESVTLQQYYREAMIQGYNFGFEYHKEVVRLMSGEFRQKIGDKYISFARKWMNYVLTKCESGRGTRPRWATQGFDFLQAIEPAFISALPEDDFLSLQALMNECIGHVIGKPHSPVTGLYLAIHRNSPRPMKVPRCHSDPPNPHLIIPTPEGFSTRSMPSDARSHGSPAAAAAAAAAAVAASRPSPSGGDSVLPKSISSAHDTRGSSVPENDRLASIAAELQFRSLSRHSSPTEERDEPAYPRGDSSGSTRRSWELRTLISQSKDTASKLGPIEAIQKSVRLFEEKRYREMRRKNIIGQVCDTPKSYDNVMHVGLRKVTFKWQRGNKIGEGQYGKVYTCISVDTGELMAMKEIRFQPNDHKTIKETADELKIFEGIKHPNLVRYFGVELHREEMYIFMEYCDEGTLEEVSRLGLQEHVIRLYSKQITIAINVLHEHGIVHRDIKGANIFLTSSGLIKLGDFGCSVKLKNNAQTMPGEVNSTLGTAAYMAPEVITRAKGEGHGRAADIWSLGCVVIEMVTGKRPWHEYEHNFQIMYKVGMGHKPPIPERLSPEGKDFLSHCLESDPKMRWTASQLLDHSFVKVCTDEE
As for `N#C/C(=C/c1ccc(O)c(O)c1)C(=O)NCc1ccccc1` [AG 490], the “Inhibition level, MAP3K4” value came to 2.
Still for that read-out and setting: next, `COc1cc2ncnc(Nc3cccc(Cl)c3)c2cc1OC` [AG 1478]: 1.
Same read-out and setting: then `O=c1c(-c2ccc(O)cc2)coc2cc(O)cc(O)c12` [Genistein], with 1.
The same measure, in the same setting: next, `O=S(=O)(NCCNC/C=C/c1ccc(Br)cc1)c1cccc2cnccc12` [H-89]: 1.

A further assay concerns the target T1, plurality of kinases (Table 5) (Homo sapiens, UniProt Q8IVH8).
T1 sequence (Q8IVH8 1-894): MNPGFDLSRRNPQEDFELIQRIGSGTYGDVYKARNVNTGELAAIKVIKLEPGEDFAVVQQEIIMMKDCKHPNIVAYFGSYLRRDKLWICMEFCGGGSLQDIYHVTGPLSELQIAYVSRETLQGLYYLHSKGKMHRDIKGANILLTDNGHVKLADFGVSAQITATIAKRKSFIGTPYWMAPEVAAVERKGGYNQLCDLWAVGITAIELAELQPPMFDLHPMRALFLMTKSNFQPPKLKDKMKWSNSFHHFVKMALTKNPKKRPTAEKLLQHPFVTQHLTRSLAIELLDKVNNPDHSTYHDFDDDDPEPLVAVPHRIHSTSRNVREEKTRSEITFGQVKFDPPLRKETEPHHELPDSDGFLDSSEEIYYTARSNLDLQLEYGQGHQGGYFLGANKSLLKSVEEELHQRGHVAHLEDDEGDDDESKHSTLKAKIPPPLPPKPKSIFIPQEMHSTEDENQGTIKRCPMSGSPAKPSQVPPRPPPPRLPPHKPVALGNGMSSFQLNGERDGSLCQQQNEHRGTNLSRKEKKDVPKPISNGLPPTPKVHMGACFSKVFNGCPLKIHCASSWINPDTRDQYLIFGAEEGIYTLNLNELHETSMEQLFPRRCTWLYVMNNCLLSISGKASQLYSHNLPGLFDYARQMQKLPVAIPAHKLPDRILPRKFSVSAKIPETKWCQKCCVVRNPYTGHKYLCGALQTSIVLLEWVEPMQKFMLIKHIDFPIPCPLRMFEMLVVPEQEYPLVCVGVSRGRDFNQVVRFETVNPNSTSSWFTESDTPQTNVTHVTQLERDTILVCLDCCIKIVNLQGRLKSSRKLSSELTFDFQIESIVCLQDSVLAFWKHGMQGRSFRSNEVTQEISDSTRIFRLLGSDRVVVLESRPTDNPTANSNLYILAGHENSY
The description is as above. The settings on record: plate C5; inhibitor 100 uM. It counts as biochemical.
As to `N#C/C(=C/c1ccc(O)c(O)c1)C(=O)NCc1ccccc1` [AG 490], the “Inhibition level, MAP4K3” value was 1.
For `COc1cc2ncnc(Nc3cccc(Cl)c3)c2cc1OC` [AG 1478], the “Inhibition level, MAP4K3” value is 2.
Same read-out and setting: then `O=c1c(-c2ccc(O)cc2)coc2cc(O)cc(O)c12` [Genistein], with 2; and `O=S(=O)(NCCNC/C=C/c1ccc(Br)cc1)c1cccc2cnccc12` [H-89], with 1.

The target of another assay is plurality of kinases (Table 5) (Homo sapiens, UniProt Q7KZI7). The assay is described as above. It counts as biochemical. The settings on record: plate C4; inhibitor 100 uM.
Sequence of plurality of kinases (Table 5) (Homo sapiens, UniProt Q7KZI7) (Q7KZI7 whole entry): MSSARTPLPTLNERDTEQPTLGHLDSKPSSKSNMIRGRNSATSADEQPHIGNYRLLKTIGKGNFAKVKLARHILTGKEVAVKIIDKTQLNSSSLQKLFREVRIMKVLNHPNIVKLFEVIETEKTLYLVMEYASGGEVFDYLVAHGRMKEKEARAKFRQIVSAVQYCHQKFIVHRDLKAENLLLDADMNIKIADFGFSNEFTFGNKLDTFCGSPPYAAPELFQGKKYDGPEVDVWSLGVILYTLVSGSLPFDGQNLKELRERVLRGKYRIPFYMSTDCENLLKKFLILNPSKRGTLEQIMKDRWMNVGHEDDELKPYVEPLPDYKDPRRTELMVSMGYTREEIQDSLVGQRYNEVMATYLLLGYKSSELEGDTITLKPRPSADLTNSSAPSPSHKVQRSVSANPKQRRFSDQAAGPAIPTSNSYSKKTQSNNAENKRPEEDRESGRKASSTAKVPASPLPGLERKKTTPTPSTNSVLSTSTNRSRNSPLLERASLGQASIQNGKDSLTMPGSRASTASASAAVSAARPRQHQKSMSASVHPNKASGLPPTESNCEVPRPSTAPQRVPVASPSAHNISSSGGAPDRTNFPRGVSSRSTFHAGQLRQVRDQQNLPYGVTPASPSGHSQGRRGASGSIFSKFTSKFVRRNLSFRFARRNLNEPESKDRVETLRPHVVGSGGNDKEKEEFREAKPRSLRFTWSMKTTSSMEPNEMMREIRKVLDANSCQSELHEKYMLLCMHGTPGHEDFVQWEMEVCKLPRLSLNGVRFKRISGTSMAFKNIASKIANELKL
As for `N#C/C(=C/c1ccc(O)c(O)c1)C(=O)NCc1ccccc1` [AG 490], the “Inhibition level, MARK2” value came to 2.
On the same count and under the same terms, then `COc1cc2ncnc(Nc3cccc(Cl)c3)c2cc1OC` [AG 1478], with 2; and `O=c1c(-c2ccc(O)cc2)coc2cc(O)cc(O)c12` [Genistein], with 2.
As for `O=S(=O)(NCCNC/C=C/c1ccc(Br)cc1)c1cccc2cnccc12` [H-89], the “Inhibition level, MARK2” value amounted to 2.

Another assay deals with plurality of kinases (Table 5) (Homo sapiens, UniProt P09769). The description is as above. The class given is biochemical. The following applies: plate B10; Genistein, conc. not given.
Sequence of plurality of kinases (Table 5) (Homo sapiens, UniProt P09769) (P09769 whole entry): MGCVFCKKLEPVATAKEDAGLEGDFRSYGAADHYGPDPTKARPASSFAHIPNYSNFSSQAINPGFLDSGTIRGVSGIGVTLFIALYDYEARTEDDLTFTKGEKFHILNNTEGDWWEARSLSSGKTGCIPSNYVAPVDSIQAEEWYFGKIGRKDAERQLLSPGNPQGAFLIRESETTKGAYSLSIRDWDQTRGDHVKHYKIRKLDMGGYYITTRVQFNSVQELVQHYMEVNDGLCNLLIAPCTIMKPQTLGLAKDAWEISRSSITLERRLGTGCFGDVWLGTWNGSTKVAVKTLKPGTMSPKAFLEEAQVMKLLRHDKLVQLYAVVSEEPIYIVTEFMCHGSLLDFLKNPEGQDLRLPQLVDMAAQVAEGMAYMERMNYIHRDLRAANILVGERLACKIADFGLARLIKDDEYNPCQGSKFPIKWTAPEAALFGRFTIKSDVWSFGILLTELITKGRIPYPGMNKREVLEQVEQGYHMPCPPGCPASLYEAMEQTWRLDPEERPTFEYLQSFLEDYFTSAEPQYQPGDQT
Regarding `O=c1c(-c2ccc(O)cc2)coc2cc(O)cc(O)c12` [Genistein], the “Inhibition level, FGR” value is reported as 2.

The same assay, now with this note: plate B10; inhibitor 100 uM.
Take `N#C/C(=C/c1ccc(O)c(O)c1)C(=O)NCc1ccccc1` [AG 490]: the “Inhibition level, FGR” value came to 2.
Consider `COc1cc2ncnc(Nc3cccc(Cl)c3)c2cc1OC` [AG 1478], for which the “Inhibition level, FGR” value was found to be 2.
Same read-out and setting: next, `O=c1c(-c2ccc(O)cc2)coc2cc(O)cc(O)c12` [Genistein]: 2; `O=S(=O)(NCCNC/C=C/c1ccc(Br)cc1)c1cccc2cnccc12` [H-89]: 2.

In another assay the target is T2, plurality of kinases (Table 5) (Homo sapiens, UniProt Q8IV63).
T2 sequence (Q8IV63 1-474): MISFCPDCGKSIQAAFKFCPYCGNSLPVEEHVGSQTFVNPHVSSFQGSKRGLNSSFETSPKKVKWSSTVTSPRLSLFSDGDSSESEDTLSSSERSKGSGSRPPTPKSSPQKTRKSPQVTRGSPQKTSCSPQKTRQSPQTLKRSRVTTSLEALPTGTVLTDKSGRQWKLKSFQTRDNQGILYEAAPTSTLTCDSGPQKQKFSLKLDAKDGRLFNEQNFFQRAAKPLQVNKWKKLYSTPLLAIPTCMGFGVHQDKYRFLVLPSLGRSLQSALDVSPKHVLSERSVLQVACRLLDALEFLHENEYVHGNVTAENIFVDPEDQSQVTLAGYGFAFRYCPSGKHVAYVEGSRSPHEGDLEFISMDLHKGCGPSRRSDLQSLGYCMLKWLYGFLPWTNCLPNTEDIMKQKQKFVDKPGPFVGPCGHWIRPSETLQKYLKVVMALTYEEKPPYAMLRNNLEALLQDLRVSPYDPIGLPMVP
The description is as above. It counts as biochemical. The settings on record: plate C12; Genistein <3.7 mM.
As to `O=c1c(-c2ccc(O)cc2)coc2cc(O)cc(O)c12` [Genistein], the “Inhibition level, LOC51231” value is recorded as 0.

Staying with this assay, now noted: plate C12; inhibitor 100 uM.
Regarding `N#C/C(=C/c1ccc(O)c(O)c1)C(=O)NCc1ccccc1` [AG 490], the “Inhibition level, LOC51231” value was 0.
Same read-out and setting: then `COc1cc2ncnc(Nc3cccc(Cl)c3)c2cc1OC` [AG 1478], with 0; and `O=c1c(-c2ccc(O)cc2)coc2cc(O)cc(O)c12` [Genistein], with 2.
On the same count and under the same terms, next, `O=S(=O)(NCCNC/C=C/c1ccc(Br)cc1)c1cccc2cnccc12` [H-89]: 2.

For another assay, the target named is plurality of kinases (Table 5) (Homo sapiens, UniProt Q8IVW4). Described as above. The following applies: plate F12; inhibitor 100 uM. The class given is biochemical.
Sequence of plurality of kinases (Table 5) (Homo sapiens, UniProt Q8IVW4) (Q8IVW4 whole entry): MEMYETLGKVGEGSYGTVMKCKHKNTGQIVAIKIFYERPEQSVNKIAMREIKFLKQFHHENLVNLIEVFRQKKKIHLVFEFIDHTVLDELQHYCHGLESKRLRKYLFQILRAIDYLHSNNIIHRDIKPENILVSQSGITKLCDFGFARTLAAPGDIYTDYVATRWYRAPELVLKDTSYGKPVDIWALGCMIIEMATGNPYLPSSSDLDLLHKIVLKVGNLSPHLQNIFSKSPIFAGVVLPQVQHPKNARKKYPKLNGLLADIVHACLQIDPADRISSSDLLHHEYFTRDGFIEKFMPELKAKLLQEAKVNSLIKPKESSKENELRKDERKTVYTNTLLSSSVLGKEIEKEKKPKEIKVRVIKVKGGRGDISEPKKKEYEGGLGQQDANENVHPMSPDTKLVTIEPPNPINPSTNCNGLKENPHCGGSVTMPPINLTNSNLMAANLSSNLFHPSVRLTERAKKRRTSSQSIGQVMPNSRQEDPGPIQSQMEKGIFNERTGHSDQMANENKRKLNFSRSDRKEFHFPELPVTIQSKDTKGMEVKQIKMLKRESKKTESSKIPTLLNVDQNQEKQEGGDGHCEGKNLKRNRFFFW
For the compound `N#C/C(=C/c1ccc(O)c(O)c1)C(=O)NCc1ccccc1` [AG 490], the “Inhibition level, CDKL3” value was determined as 2.
Still for that read-out and setting: then `COc1cc2ncnc(Nc3cccc(Cl)c3)c2cc1OC` [AG 1478], with 1.
On the same count and under the same terms, then `O=c1c(-c2ccc(O)cc2)coc2cc(O)cc(O)c12` [Genistein], with 0; and `O=S(=O)(NCCNC/C=C/c1ccc(Br)cc1)c1cccc2cnccc12` [H-89], with 1.

A further assay concerns the target T3, plurality of kinases (Table 5) (Homo sapiens, UniProt Q08881).
T3 sequence (Q08881 1-620): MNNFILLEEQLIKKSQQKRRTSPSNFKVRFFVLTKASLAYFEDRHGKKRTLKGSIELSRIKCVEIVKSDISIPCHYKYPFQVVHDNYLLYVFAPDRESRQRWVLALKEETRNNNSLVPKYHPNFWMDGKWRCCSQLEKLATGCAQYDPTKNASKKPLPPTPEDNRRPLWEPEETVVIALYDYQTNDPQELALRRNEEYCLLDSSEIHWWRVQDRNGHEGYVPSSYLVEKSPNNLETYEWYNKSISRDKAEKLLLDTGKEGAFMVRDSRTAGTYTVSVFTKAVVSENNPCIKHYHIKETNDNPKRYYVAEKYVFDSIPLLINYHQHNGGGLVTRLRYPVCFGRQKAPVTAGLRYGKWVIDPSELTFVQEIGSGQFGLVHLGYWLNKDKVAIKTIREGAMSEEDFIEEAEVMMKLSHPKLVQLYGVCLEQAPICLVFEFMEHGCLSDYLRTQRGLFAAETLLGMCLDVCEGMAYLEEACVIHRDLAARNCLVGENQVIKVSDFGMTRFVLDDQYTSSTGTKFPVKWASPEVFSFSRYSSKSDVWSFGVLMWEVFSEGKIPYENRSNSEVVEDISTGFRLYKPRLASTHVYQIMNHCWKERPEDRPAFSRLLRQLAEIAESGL
The description is as above. It counts as biochemical. The settings on record: plate E4; inhibitor 100 uM.
Regarding `N#C/C(=C/c1ccc(O)c(O)c1)C(=O)NCc1ccccc1` [AG 490], the “Inhibition level, ITK” value is 1.
On the same count and under the same terms, then `COc1cc2ncnc(Nc3cccc(Cl)c3)c2cc1OC` [AG 1478], with 1.
Still for that read-out and setting: next, `O=c1c(-c2ccc(O)cc2)coc2cc(O)cc(O)c12` [Genistein]: 2; `O=S(=O)(NCCNC/C=C/c1ccc(Br)cc1)c1cccc2cnccc12` [H-89]: 1.

The target in the next assay is plurality of kinases (Table 5) (Homo sapiens, UniProt P11309). Described as above. It counts as biochemical. The following applies: plate C2; Genistein <3.7 mM.
Sequence of plurality of kinases (Table 5) (Homo sapiens, UniProt P11309) (P11309 whole entry): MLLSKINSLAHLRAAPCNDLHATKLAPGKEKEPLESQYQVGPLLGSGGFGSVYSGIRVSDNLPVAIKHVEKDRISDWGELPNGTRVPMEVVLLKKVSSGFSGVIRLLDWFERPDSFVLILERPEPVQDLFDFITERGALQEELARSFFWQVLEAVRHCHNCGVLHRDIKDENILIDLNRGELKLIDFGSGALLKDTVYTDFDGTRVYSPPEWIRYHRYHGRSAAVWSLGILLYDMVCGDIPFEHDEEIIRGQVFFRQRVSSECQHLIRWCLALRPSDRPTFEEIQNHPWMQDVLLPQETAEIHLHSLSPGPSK
As to `O=c1c(-c2ccc(O)cc2)coc2cc(O)cc(O)c12` [Genistein], the “Inhibition level, PIM1” value is 0.

Staying with this assay, now noted: plate C2; inhibitor 100 uM.
As to `N#C/C(=C/c1ccc(O)c(O)c1)C(=O)NCc1ccccc1` [AG 490], the “Inhibition level, PIM1” value is 2.
For `COc1cc2ncnc(Nc3cccc(Cl)c3)c2cc1OC` [AG 1478], the “Inhibition level, PIM1” value was 1.
With `O=c1c(-c2ccc(O)cc2)coc2cc(O)cc(O)c12` [Genistein], the “Inhibition level, PIM1” value is on record as 2.
Take `O=S(=O)(NCCNC/C=C/c1ccc(Br)cc1)c1cccc2cnccc12` [H-89]: the “Inhibition level, PIM1” value was 2.

The target of the next assay is T4, plurality of kinases (Table 5) (Homo sapiens, UniProt Q96KB5).
T4 sequence (Q96KB5 1-322): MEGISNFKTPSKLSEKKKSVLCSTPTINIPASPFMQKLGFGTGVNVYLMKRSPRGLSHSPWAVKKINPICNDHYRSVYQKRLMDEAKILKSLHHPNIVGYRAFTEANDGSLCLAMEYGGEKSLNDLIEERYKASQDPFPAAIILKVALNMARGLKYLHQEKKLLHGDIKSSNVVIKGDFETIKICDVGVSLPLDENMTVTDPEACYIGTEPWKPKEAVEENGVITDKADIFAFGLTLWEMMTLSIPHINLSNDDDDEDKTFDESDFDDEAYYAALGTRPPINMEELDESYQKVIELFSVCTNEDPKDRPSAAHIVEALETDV
The description is as above. It counts as biochemical. The following applies: plate G7; Genistein <3.7 mM.
`O=c1c(-c2ccc(O)cc2)coc2cc(O)cc(O)c12` [Genistein]: the “Inhibition level, TOPK” value is listed as 0.

The assay is the same for the next values; noted with them: plate G7; inhibitor 100 uM.
Consider `N#C/C(=C/c1ccc(O)c(O)c1)C(=O)NCc1ccccc1` [AG 490], for which the “Inhibition level, TOPK” value amounted to 2.
As to `COc1cc2ncnc(Nc3cccc(Cl)c3)c2cc1OC` [AG 1478], the “Inhibition level, TOPK” value was found to be 1.
Same read-out and setting: then `O=c1c(-c2ccc(O)cc2)coc2cc(O)cc(O)c12` [Genistein], with 2.
Consider `O=S(=O)(NCCNC/C=C/c1ccc(Br)cc1)c1cccc2cnccc12` [H-89], for which the “Inhibition level, TOPK” value amounted to 2.
